Measured values from US20230172867A1, “A METHOD FOR TREATING CANCER WITH AN ORAL DOSAGE FORM OF AN FGFR4 INHIBITOR” (Eisai R&D Management Co., Ltd., priority 2020, published 2023).
Where two headings read alike, the source gives them in different places.

Test: Pharmacokinetic measurements of H3B-6527 capsules in patients (trial NCT02834780), plasma LC-MS/MS
Type: in vivo, human
Settings: human, plasma, oral; for AUC: read-out: AUC, geometric mean (CV%); for Cmax: read-out: Cmax, geometric mean (CV%)
Excerpt: A description of the first in human clinical trial for H3B-6527 can be found at the ClinicalTrials.gov by searching for trial identifier NCT02834780. In summary, the trial included a study population having the following characteristics: Adult patients ≥18 years old with advanced HCC or ICC; Progression after at least one prior therapy; ECOG score of 0 or 1; Well compensated liver function; FGF19-positive (dose expansion phase only); Excluded if patients have significant active infections [except hepatitis B virus (HBV) and hepatitis C virus (HCV)], gastric or esophageal varices, or previous FGF19-FGFR4 targeted therapy.
Blood samples are collected at the planned time points from each patient and centrifuged. The plasma portion of each sample is then transferred to a K2EDTA tube, which is then shipped to a bioanalytical lab for concentration measurement using LC-MS/MS. The concentration data are then analyzed using Phoenix® WinNonlin software to obtain PK parameters. The obtained PK parameters are further summarized using analytical software.
Drug Administration and Dosage for Dose Escalation: H3B-6527 was administered orally QD or BID on a 21-day cycle. […] Patients in dose escalation phase were treated regardless of FGF19 status. Response determined by RECIST 1.1/modified RECIST every 6 weeks
Further collection and collation of the PK results of the trial of Example 2 at a later point in time are reflected in the following Table 5:
The results of further analysis of the PK data of the trial of Example 2 with the actual date and time of the dose administration and PK sampling after QC, an update from the results of a preliminary analysis with the nominal (i.e. planned) dosing/PK sampling date/time presented in Example 3, are reflected in the following Table 6. In this example the number of patients from which each PK parameter was calculated is shown, rather than the total number of patients receiving a particular dose and regimen as in Table 5.

[1] = 600 mg, 600 mg QD, fed, Day 8, Table 6, actual times after QC
[2] = 700 mg, 700 mg BID, fed, Day 1, Table 6, actual times after QC
[3] = 700 mg, 700 mg BID, fed, Day 8, Table 6, actual times after QC
[4] = 1000 mg, 1000 mg QD, fasted, Day 1, Table 6, actual times after QC
[5] = 1000 mg, 1000 mg QD, fasted, Day 8, Table 6, actual times after QC
[6] = 1000 mg, 1000 mg QD, fed, Day 1, Table 6, actual times after QC
[7] = 1000 mg, 1000 mg QD, fed, Day 8, Table 6, actual times after QC
[8] = 1400 mg, 1400 mg QD, fasted, Day 1, Table 6, actual times after QC
[9] = 1400 mg, 1400 mg QD, fasted, Day 8, Table 6, actual times after QC
[10] = 1400 mg, 1400 mg QD, fed, Day 1, Table 6, actual times after QC
[11] = 1400 mg, 1400 mg QD, fed, Day 8, Table 6, actual times after QC
[12] = 2000 mg, 2000 mg QD, fed, Day 1, Table 6, actual times after QC
[13] = 2000 mg, 2000 mg QD, fed, Day 8, Table 6, actual times after QC

Which results are given for C=CC(=O)Nc1cc(N2CCN(CC)CC2)ccc1Nc1cc(N(C)C(=O)Nc2c(Cl)c(OC)cc(OC)c2Cl)ncn1 [H3B-6527, N-(2-((6-(3-(2,6-dichloro-3,5-dimethoxyphenyl)-1-methylureido)pyrimidin-4-yl)amino)-5-(4-ethylpiperazin-1-yl)phenyl)acrylamide]?
Tmax (600 mg, 600 mg QD, fed, Day 8, Table 5, nominal times, read-out: Tmax, median (min-max)): 4.52 h; AUC [1]: 501 ng·h/mL; Cmax [1]: 99.6 ng/mL; half-life (600 mg, 600 mg QD, fed, Day 8, Table 6, actual times after QC, read-out: Half-life, geometric mean (CV%) (converted)): 5.88 h; Tmax (600 mg, 600 mg QD, fed, Day 8, Table 6, actual times after QC, read-out: Tmax, median (min-max)): 4.52 h; Cmax (700 mg, 700 mg BID, fed, Day 1, Table 5, nominal times): 163 ng/mL; half-life (700 mg, 700 mg BID, fed, Day 1, Table 5, nominal times, read-out: Half-life, geometric mean (CV%) (converted)): 2.1 h; Tmax (700 mg, 700 mg BID, fed, Day 1, Table 5, nominal times, read-out: Tmax, median (min-max)): 2.02 h; AUC [2]: 591 ng·h/mL; Cmax [2]: 163 ng/mL; half-life (700 mg, 700 mg BID, fed, Day 1, Table 6, actual times after QC, read-out: Half-life, geometric mean (CV%) (converted)): 2.13 h; Tmax (700 mg, 700 mg BID, fed, Day 1, Table 6, actual times after QC, read-out: Tmax, median (min-max)): 2.02 h; Cmax (700 mg, 700 mg BID, fed, Day 8, Table 5, nominal times): 167 ng/mL; half-life (700 mg, 700 mg BID, fed, Day 8, Table 5, nominal times, read-out: Half-life, geometric mean (CV%) (converted)): 2.2 h; Tmax (700 mg, 700 mg BID, fed, Day 8, Table 5, nominal times, read-out: Tmax, median (min-max)): 4.12 h; AUC [3]: 639 ng·h/mL; Cmax [3]: 167 ng/mL; half-life (700 mg, 700 mg BID, fed, Day 8, Table 6, actual times after QC, read-out: Half-life, geometric mean (CV%) (converted)): 2.18 h; Tmax (700 mg, 700 mg BID, fed, Day 8, Table 6, actual times after QC, read-out: Tmax, median (min-max)): 4.12 h; Cmax (1000 mg, 1000 mg QD, fasted, Day 1, Table 5, nominal times): 146 ng/mL; half-life (1000 mg, 1000 mg QD, fasted, Day 1, Table 5, nominal times, read-out: Half-life, geometric mean (CV%) (converted)): 4.5 h; Tmax (1000 mg, 1000 mg QD, fasted, Day 1, Table 5, nominal times, read-out: Tmax, median (min-max)): 2.01 h; AUC [4]: 854 ng·h/mL; Cmax [4]: 225 ng/mL; half-life (1000 mg, 1000 mg QD, fasted, Day 1, Table 6, actual times after QC, read-out: Half-life, geometric mean (CV%) (converted)): 4.48 h; Tmax (1000 mg, 1000 mg QD, fasted, Day 1, Table 6, actual times after QC, read-out: Tmax, median (min-max)): 2.02 h; Cmax (1000 mg, 1000 mg QD, fasted, Day 8, Table 5, nominal times): 197 ng/mL; half-life (1000 mg, 1000 mg QD, fasted, Day 8, Table 5, nominal times, read-out: Half-life, geometric mean (CV%) (converted)): 4.5 h; Tmax (1000 mg, 1000 mg QD, fasted, Day 8, Table 5, nominal times, read-out: Tmax, median (min-max)): 2.02 h; AUC [5]: 839 ng·h/mL; Cmax [5]: 187 ng/mL; half-life (1000 mg, 1000 mg QD, fasted, Day 8, Table 6, actual times after QC, read-out: Half-life, geometric mean (CV%) (converted)): 4.84 h; Tmax (1000 mg, 1000 mg QD, fasted, Day 8, Table 6, actual times after QC, read-out: Tmax, median (min-max)): 2 h; Cmax (1000 mg, 1000 mg QD, fed, Day 1, Table 5, nominal times): 188 ng/mL; half-life (1000 mg, 1000 mg QD, fed, Day 1, Table 5, nominal times, read-out: Half-life, geometric mean (CV%) (converted)): 4 h; Tmax (1000 mg, 1000 mg QD, fed, Day 1, Table 5, nominal times, read-out: Tmax, median (min-max)): 5.05 h; AUC [6]: 1120 ng·h/mL; Cmax [6]: 182 ng/mL; half-life (1000 mg, 1000 mg QD, fed, Day 1, Table 6, actual times after QC, read-out: Half-life, geometric mean (CV%) (converted)): 3.94 h; Tmax (1000 mg, 1000 mg QD, fed, Day 1, Table 6, actual times after QC, read-out: Tmax, median (min-max)): 6 h; Cmax (1000 mg, 1000 mg QD, fed, Day 8, Table 5, nominal times): 199 ng/mL; half-life (1000 mg, 1000 mg QD, fed, Day 8, Table 5, nominal times, read-out: Half-life, geometric mean (CV%) (converted)): 4.2 h; Tmax (1000 mg, 1000 mg QD, fed, Day 8, Table 5, nominal times, read-out: Tmax, median (min-max)): 4.08 h; AUC [7]: 796 ng·h/mL; Cmax [7]: 177 ng/mL; half-life (1000 mg, 1000 mg QD, fed, Day 8, Table 6, actual times after QC, read-out: Half-life, geometric mean (CV%) (converted)): 6.16 h; Tmax (1000 mg, 1000 mg QD, fed, Day 8, Table 6, actual times after QC, read-out: Tmax, median (min-max)): 2 h; half-life (1000 mg, following administration of 1000 mg (fasted), read-out: mean terminal half-life): 4 to 5 h; Cmax (1400 mg, 1400 mg QD, fasted, Day 1, Table 5, nominal times): 136 ng/mL; half-life (1400 mg, 1400 mg QD, fasted, Day 1, Table 5, nominal times, read-out: Half-life, geometric mean (CV%) (converted)): 5.3 h; Tmax (1400 mg, 1400 mg QD, fasted, Day 1, Table 5, nominal times, read-out: Tmax, median (min-max)): 1 h; AUC [8]: 400 ng·h/mL; Cmax [8]: 136 ng/mL; half-life (1400 mg, 1400 mg QD, fasted, Day 1, Table 6, actual times after QC, read-out: Half-life, geometric mean (CV%) (converted)): 6.13 h; Tmax (1400 mg, 1400 mg QD, fasted, Day 1, Table 6, actual times after QC, read-out: Tmax, median (min-max)): 1 h; Cmax (1400 mg, 1400 mg QD, fasted, Day 8, Table 5, nominal times): 362 ng/mL; half-life (1400 mg, 1400 mg QD, fasted, Day 8, Table 5, nominal times, read-out: Half-life, geometric mean (CV%) (converted)): 4.9 h; Tmax (1400 mg, 1400 mg QD, fasted, Day 8, Table 5, nominal times, read-out: Tmax, median (min-max)): 2.1 h; AUC [9]: 1260 ng·h/mL; Cmax [9]: 362 ng/mL; half-life (1400 mg, 1400 mg QD, fasted, Day 8, Table 6, actual times after QC, read-out: Half-life, geometric mean (CV%) (converted)): 4.56 h; Tmax (1400 mg, 1400 mg QD, fasted, Day 8, Table 6, actual times after QC, read-out: Tmax, median (min-max)): 2.1 h; Cmax (1400 mg, 1400 mg QD, fed, Day 1, Table 5, nominal times): 904 ng/mL; half-life (1400 mg, 1400 mg QD, fed, Day 1, Table 5, nominal times, read-out: Half-life, geometric mean (CV%) (converted)): 4.1 h; Tmax (1400 mg, 1400 mg QD, fed, Day 1, Table 5, nominal times, read-out: Tmax, median (min-max)): 5 h; AUC [10]: 5670 ng·h/mL; Cmax [10]: 904 ng/mL; half-life (1400 mg, 1400 mg QD, fed, Day 1, Table 6, actual times after QC, read-out: Half-life, geometric mean (CV%) (converted)): 4.13 h; Tmax (1400 mg, 1400 mg QD, fed, Day 1, Table 6, actual times after QC, read-out: Tmax, median (min-max)): 5 h; Cmax (1400 mg, 1400 mg QD, fed, Day 8, Table 5, nominal times): 827 ng/mL; half-life (1400 mg, 1400 mg QD, fed, Day 8, Table 5, nominal times, read-out: Half-life, geometric mean (CV%) (converted)): 4.4 h; Tmax (1400 mg, 1400 mg QD, fed, Day 8, Table 5, nominal times, read-out: Tmax, median (min-max)): 5.86 h; AUC [11]: 5450 ng·h/mL; Cmax [11]: 827 ng/mL; half-life (1400 mg, 1400 mg QD, fed, Day 8, Table 6, actual times after QC, read-out: Half-life, geometric mean (CV%) (converted)): 4.75 h; Tmax (1400 mg, 1400 mg QD, fed, Day 8, Table 6, actual times after QC, read-out: Tmax, median (min-max)): 5.86 h; Cmax (2000 mg, 2000 mg QD, fed, Day 1, Table 5, nominal times): 525 ng/mL; half-life (2000 mg, 2000 mg QD, fed, Day 1, Table 5, nominal times, read-out: Half-life, geometric mean (CV%) (converted)): 5.5 h; Tmax (2000 mg, 2000 mg QD, fed, Day 1, Table 5, nominal times, read-out: Tmax, median (min-max)): 2 h; AUC [12]: 2950 ng·h/mL; Cmax [12]: 540 ng/mL; half-life (2000 mg, 2000 mg QD, fed, Day 1, Table 6, actual times after QC, read-out: Half-life, geometric mean (CV%) (converted)): 4.14 h; Tmax (2000 mg, 2000 mg QD, fed, Day 1, Table 6, actual times after QC, read-out: Tmax, median (min-max)): 2.1 h; Cmax (2000 mg, 2000 mg QD, fed, Day 8, Table 5, nominal times): 451 ng/mL; half-life (2000 mg, 2000 mg QD, fed, Day 8, Table 5, nominal times, read-out: Half-life, geometric mean (CV%) (converted)): 5.7 h; Tmax (2000 mg, 2000 mg QD, fed, Day 8, Table 5, nominal times, read-out: Tmax, median (min-max)): 2.5 h; AUC [13]: 2580 ng·h/mL; Cmax [13]: 502 ng/mL; half-life (2000 mg, 2000 mg QD, fed, Day 8, Table 6, actual times after QC, read-out: Half-life, geometric mean (CV%) (converted)): 4.98 h; Tmax (2000 mg, 2000 mg QD, fed, Day 8, Table 6, actual times after QC, read-out: Tmax, median (min-max)): 4 h; Tmax (fasted, read-out: median plasma tmax): 1 to 3 h
